Reference: patent US9458194B2, “Compounds useful in the treatment and/or care of the skin and their cosmetic or pharmaceutical compositions” (Lubrizol Advanced Materials, Inc., priority 2013, dated 2016)
“And” between values parts separate entries of the source, which are not always exact repeats. Equal values may be shown once.

Assays:
fibulin-5 = assay: Immunofluorescence of fibulin-5 protein expression in human dermal fibroblasts; format: cell-based; settings: 0.5 mg/mL, 48 hours, HDFa
Method: In this experiment the number of times that the expression of the proteins fibulin-5 and LOXL1 in human dermal fibroblasts is increased with regard to the basal levels in untreated cells (negative control) when treating the cells with 0.5 mg/ml of the product Ac-L-Asp-L-Val-L-Lys-L-Tyr-OH and it is compared with the effect of Interleukin-1β (IL-1β) at 20 ng/ml and TGF-β at 5 ng/ml (positive controls), which increase an average of 1.5 times and 2 times, respectively, the expression of these proteins, in the same conditions.
Adult human dermal fibroblasts were seeded (HDFa) (2.5×10^3 cells/well) in a 96-well transparent plate, treated with polylysine, and were incubated in complete medium 106 for 72 hours at 37° C. in an atmosphere with 5% CO2. After the incubation, the cells were treated with the different compounds in complete medium 106 for 48 hours at 37° C. in an atmosphere with 5% CO2. As positive controls of increase of the expression of the proteins fibulin-5 and LOXL1, 5 ng/ml of TGF-β and 20 ng/ml of IL-1β were used and as a negative control untreated cells were used, just with complete medium 106. The incubations and the treatments were carried out in quadruplicate for each condition. After the treatment, the levels of expression of both proteins were quantified relatively by using specific fluorescent antibodies, photographic recording by microscopy and subsequent quantification of the fluorescent signal using image processing software, the number of total cells by fluorescent staining of the nuclei (DAPI) and subsequent quantification in the same images. For the determination of the expression of the proteins fibulin-5 and LOXL1 the cells were washed with PBS 48 hours after the treatments and were fixed with paraformaldehyde. Next, duplicates of each treatment were used to mark separately the fibulin-5 and LOXL1 proteins. For each of the proteins a specific primary monoclonal antibody was used (Abcam). After the primary incubation, the cells were washed with PBS and the secondary marking was carried out with specific fluorescent polyclonal antibodies for each primary antibody. For fibulin-5 an Alexa Fluor® 594 (red) secondary antibody was used and for LOXL1 an Alexa Fluor® 488 (green) secondary antibody was used. 16 hours later all the samples were stained with DAPI (4′,6-Diamidino-2-Phenylindole), fluorescent marker for the staining of nuclei, and the photographic recording was carried out by fluorescence microscopy in a Leica microscope. 2-4 images were taken per condition and per protein and the fluorescent signals were quantified (IOD) corresponding to each protein and the nuclei by means of image analysis software. The fibulin-5 and LOXL1 signals were normalized according to the number of total nuclei for each image. 3 independent assays were carried out.

[1] = tested on: human LOXL1 gene promoter; assay: Luminescence assay of human LOXL1 gene promoter activation (Renilla luciferase); format: cell-based; settings: 16-24 hours
Method: The effect of the compounds of the invention on the activity of the fibulin-5 and LOXL1 promoters was studied and compared to the levels of basal expression of the untreated cells (negative control) and with the effect of Interleukin-1β (IL-1β) in the same conditions.
Cells from an epithelial cell line doubly transfected with fibulin-5 and LOXL1 human promoters in which the luciferase gene is under the regulatory control of said promoters (4×10^4 cells/well) were seeded in a white plate and in a 96-well transparent plate, both treated with polylysine, and were incubated in Dulbecco's Modified Eagle Medium (DMEM-Glutamax™), with 10% of FBS, 1% Penicillin-Streptomycin (P/S), 1 mg/ml of Geneticin® (G418) and […] at 37° C. in at atmosphere with 5% CO2. After the incubation, the cells were incubated for 6 hours at 37° C. in at atmosphere with 5% CO2 with DMEM without serum. Then, this medium was removed and the cells were treated with different compounds at 0.1 mg/ml, 0.5 mg/ml, 1 mg/ml or 2 mg/mL in DMEM/1% FBS for 16-24 hours. As a positive control to activate the fibulin-5 and LOXL1 promoters 10 ng/ml of IL-1β were used and as a negative control untreated cells were used, just with DMEM/1% FBS. The incubations and treatments were carried out in parallel in the white plate and the transparent plate and in triplicate for each condition. After the treatment, the relative light units per second were determined (RLU/s) in the white plate by means of consecutive quantification of the activities of Firefly luciferase (fibulin-5 promoter) and Renilla luciferase (LOXL1 promoter), and the number of total cells/well in the transparent plate by means of staining with Crystal Violet (CV). To determine the Firefly and Renilla luciferase activities the Dual-Glo Luciferase Assay System kit by Promega was used. The cells were briefly lysed and the Firefly luciferase substrate was added. After incubating for 10 min at 25° C., the RLU/s were quantified by luminescence reader (Lumistar-BMG). Then the Firefly signal was extinguished and the Renilla luciferase substrate was added. After incubating for 5 min at 25° C., the RLU/s were quantified by the same luminescence reader. With regard to the determination of the total number of cells by Crystal Violet, the CV dyes the DNA of the cells and the quantity of dye taken by the cells can be measured in an absorbency reader at 630 nm (Multiskan Ascent). The color obtained is directly proportional to the total number of cells per well. The cells were briefly incubated with 0.05% CV plus 4% Formalin for 20 minutes and after several washes with Milli-Q water, the cells were left to dry for 1-2 hours and then 0.1 M of HCl was added for its immediate reading. The RLU/s of the luciferases corresponding to each promoter were normalized by the average of the total number of cells per condition. Three independent assays with 3 measurements per assay were carried out for Ac-L-Asp-L-Val-L-Lys-L-Tyr-OH at 0.1 mg/mL and 1 mg/mL. 1 assay with 3 measurements was carried out for the other compounds and concentrations.
The increase in the activity of the promoters with regard to the levels of expression of the negative control was determined.

**Q.** With “Ac-L-Asp-L-Val-L-Lys-L-Tyr-OH (Ac-DVKY-OH)” as the substance, how does the “Increase in the expression of the protein fibulin-5 with regard to the negative control” value (fibulin-5) read?
**A.** 134% and 133.90%

**Q.** And the “Increase in the activity of the human promoter of the LOXL1 gene with regard to the negative control” value (“Increase in the activity” for short) ([1]; 0.1 mg/mL)?
**A.** 7.12%

**Q.** What about the “Increase in the activity” value ([1]; 1 mg/mL) of the same substance?
**A.** 27% and 27.06%

**Q.** And the “Increase in the activity” value ([1]; 2 mg/mL)?
**A.** 10.41%
